In patent publication US20260374782A1, “NEW COMPOUNDS, PROCESSES FOR PREPARING THE SAME AND THEIR USE AS DRUGS” (B&A ONCOMEDICAL, priority 2022, published 2026):
Like-named read-outs stand apart in the source and are kept apart here.

Molecular target: T1, NKCC1 (Homo sapiens, UniProt P55011)
T1 construct: endogenous in cells; host or cells: native HEK293 cells
T1 sequence (P55011 1-1212): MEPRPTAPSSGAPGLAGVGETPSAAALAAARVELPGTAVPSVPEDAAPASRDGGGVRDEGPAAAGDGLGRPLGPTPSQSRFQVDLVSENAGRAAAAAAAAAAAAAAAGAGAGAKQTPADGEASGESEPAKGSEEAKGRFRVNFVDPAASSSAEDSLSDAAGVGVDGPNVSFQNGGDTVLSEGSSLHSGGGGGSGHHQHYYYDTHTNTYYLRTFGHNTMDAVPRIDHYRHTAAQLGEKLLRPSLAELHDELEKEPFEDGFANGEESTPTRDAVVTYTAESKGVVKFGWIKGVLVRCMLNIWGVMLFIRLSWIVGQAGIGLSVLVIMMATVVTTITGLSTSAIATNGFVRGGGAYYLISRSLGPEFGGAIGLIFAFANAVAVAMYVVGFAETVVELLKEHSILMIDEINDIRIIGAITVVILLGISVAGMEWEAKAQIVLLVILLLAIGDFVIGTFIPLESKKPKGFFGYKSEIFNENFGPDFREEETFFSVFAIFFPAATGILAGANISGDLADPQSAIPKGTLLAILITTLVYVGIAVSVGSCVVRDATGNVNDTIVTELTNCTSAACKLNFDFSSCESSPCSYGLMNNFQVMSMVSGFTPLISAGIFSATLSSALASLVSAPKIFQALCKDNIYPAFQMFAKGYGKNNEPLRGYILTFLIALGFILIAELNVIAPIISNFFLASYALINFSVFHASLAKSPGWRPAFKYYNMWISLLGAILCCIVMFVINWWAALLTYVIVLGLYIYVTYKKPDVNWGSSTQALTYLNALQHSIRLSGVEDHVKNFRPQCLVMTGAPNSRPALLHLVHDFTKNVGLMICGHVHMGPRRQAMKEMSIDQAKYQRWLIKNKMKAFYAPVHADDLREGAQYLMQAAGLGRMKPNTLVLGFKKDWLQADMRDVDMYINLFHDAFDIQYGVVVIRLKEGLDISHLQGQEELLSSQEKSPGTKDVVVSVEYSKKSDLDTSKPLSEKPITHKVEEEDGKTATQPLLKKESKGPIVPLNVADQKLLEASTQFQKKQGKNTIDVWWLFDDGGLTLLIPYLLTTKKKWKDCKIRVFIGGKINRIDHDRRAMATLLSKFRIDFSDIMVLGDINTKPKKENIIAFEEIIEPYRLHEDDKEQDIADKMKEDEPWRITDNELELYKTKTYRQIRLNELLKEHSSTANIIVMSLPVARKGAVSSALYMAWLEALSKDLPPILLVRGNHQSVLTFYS
Assay: NKCC1-mediated K+ influx (83Rb tracer uptake) in native HEK293 cells, hypertonic saline, 100 μM ouabain
Type: cell-based
Description: The compounds of the invention have been tested for evaluating their potency in inhibiting the NKCC1 channel. The test used is a cellular assay expressing the NKCC1 channel: HEK293 cells are human cells derived from embryonic kidney. The inhibitory activity of the compounds has been evaluated in measuring the modification of the potassium flux at 2 concentrations, as described hereafter in the biological protocol.
HEK293 cells are human cells derived from embryonic kidney. They express at their plasma membranes proteins that transport potassium (K^+). Among these proteins is the Na—K-2Cl cotransporter or NKCC1. This transporter contributes to 40-50% of K^+ influx into the cells. The remaining of K^+ transport is mediated by the Na^+/K^+-ATPase (also known as Na^+ pump or Na^+/K^+ pump), which also contributes some 40-50% of the influx basal flux of 5-10%, which is mainly due to K^+ channels (FIG. 1A). Thus, the HEK293 cell in culture is an ideal model to study the function of NKCC1 and test compounds that inhibits its transport.
The assay to measure NKCC1 function was optimized to obtain the next signal to noise ratio: • a. A slightly hypertonic saline was used to stimulate NKCC1 function. […] By consistent use of this simple manipulation, the NKCC1 signal was enhanced. • b. Ouabain, an inhibitor of the Na^+/K^+ pump, was used at 100 μM. […] A radioactive isotope was used to trace the inward movement of K^+ into the cell (influx). This allowed for highly precise measurements of K^+ influx. Because radioactive isotopes of K^+ had very short half-lives, radioactive isotopes of Rb^+ were used. Rubidium was a monovalent cation which was readily transporter at the K^+ binding site by many transporters and channels. Rb^+ was a congener of K^+, being transported undistinguishably from K^+. ^83Rb (half-life of 83 days) was used since ^86Rb (half-life of 19.6 days) is no longer commercially available. The ^83Rb isotope was used as a tracer, i.e. at a very low amounts to trace the movement of K^+.
K^+ influx measured in native HEK293 was in the range of 7000-9000 pmoles K^+ per mg protein per min. In the presence of 20 μM Ref 1, the flux was reduced to 600-900 pmoles K^+ per mg protein per min. Thus, there was a very solid dynamic range. In each experiment, the flux without Ref 1 was set at 1000 (equivalent to 100.0%) and the flux with 20 μM bumetanide was set at 0 (equivalent to 0%).
For the flux experiments, 35-mm culture dishes were coated with 0.1 mg/mL poly-L-lysine and placed in large 20×20 [square] dishes. For convenience, the poly-L-lysine was placed in the dishes the day before the experiment. Before plating the cells, the poly-L-lysine was aspirated, and each dish washed twice with 1 mL sterile water. Cells from 3 confluent 10-cm dishes were detached with trypsin and resuspended into 49 mL complete medium. Cells (2 mL/35-mm dish) were plated in 24 dishes and allowed to attach for at least 2 hours prior to the flux. This setup allowed the measurement of 8 conditions in triplicates. For the flux, culture medium was aspirated and replaced with 1 mL saline for a preincubation period of 15 min. The saline was aspirated and replaced with 1 mL identical saline containing 0.25 μCi/mL 83Rb for 15 min. Following the uptake period, the radioactive solution was aspirated, and the cells washed 3 times with ice-cold saline. Cells were then lyzed with 500 μl 0.25N NaOH for 1 hour, neutralized with 250 μL glacial acetic acid and 300 μL and 30 μL aliquots were used for μ-scintillation counting and protein assays, respectively. Two 5 μL of each flux solution was used to determine cpm and relate those cpm to nmoles K^+. Potassium influx was expressed in nmoles K^+ per mg protein per min. Note that within an experiment, groups of 3 dishes were separated 2 min apart for easy handling. Also note that since all dishes were plated with a homogeneous cell suspension, and all dishes were identical, the protein content was measured from a subset of dishes. […]

[1] = HEK293, no drug = 1000, 20 μM bumetanide = 0, read-out: NKCC1 mediated flux inhibition at 2 μM (%)
[2] = HEK293, 20 μM, no drug = 1000, 20 μM bumetanide = 0, read-out: NKCC1 mediated flux inhibition at 20 μM (%)

| Compound | inhibition at 2 µM [1] [%] | inhibition at 20 µM [2] [%] | inhibition at 2 µM (native HEK293, read-out: Percent inhibition of drugs on NKCC1, 2 uM) [%] | inhibition at 20 µM (20 μM, native HEK293, read-out: Percent inhibition of drugs on NKCC1, 20 uM) [%] | K+ influx in the presence of compound (20 μM, native HEK293 without compound 7000-9000) |
| --- | --- | --- | --- | --- | --- |
| CCCCNc1cc(C(=O)O)cc(S(=N)(=O)Nc2nccs2)c1Oc1ccccc1 (stereo not drawn) [Compound 90, 3-(butylamino)-4-phenoxy-5-[(thiazol-2-ylamino)sulfonimidoyl]benzoic acid] | 30 to 50 | ≥ 75 | – | – | – |
| CCCCNc1cc(C(=O)O)cc(S(=N)(=O)NC2CCN(C(C)=O)CC2)c1Oc1ccccc1 (stereo not drawn) [Compound 92, 3-[[(1-acetyl-4-piperidyl)amino]sulfonimidoyl]-5-(butylamino)-4-phenoxy-benzoic acid] | 10 to 30 | 50 to 75 | – | – | – |
| CCCCNc1cc(C(=O)OC)cc(S(=N)(=O)N2CCCCCC2)c1Oc1ccccc1 (stereo not drawn) [Compound 11, methyl 3-(azepan-1-ylsulfonimidoyl)-5-(butylamino)-4-phenoxy-benzoate] | – | 50 to 75 | – | – | – |
| CCCCNc1cc(C(=O)NOC)cc(S(=N)(=O)Nc2ccccc2)c1Oc1ccccc1 (stereo not drawn) [Compound 108, 3-(anilinosulfonimidoyl)-5-(butylamino)-N-methoxy-4-phenoxy-benzamide] | 30 to 50 | 30 to 50 | – | – | – |
| CCCCNc1cc(C(=O)OC)cc(S(=N)(=O)NCc2cccnc2)c1Oc1ccccc1 (stereo not drawn) [Compound 36, methyl 3-(butylamino)-4-phenoxy-5-[(3-pyridylmethylamino)sulfonimidoyl]benzoate] | – | 30 to 50 | – | – | – |
| CCCCNc1cc(C(=O)OC)cc(S(=N)(=O)Nc2ccc(Cl)cc2)c1Oc1ccccc1 (stereo not drawn) [Compound 27, methyl 3-(butylamino)-5-[(4-chloroanilino)sulfonimidoyl]-4-phenoxy-benzoate] | – | 10 to 30 | – | – | – |
| CCCCNc1cc(C(=O)O)cc(S(=N)(=O)Nc2cccnc2)c1Oc1ccccc1 (stereo not drawn) [Compound 64, 3-(butylamino)-4-phenoxy-5-[(3-pyridylamino)sulfonimidoyl]benzoic acid] | 50 to 75 | ≥ 75 | – | – | – |
| CCCCNc1cc(C(=O)NC)cc(S(=N)(=O)NCC2CCOCC2)c1Oc1ccccc1 (stereo not drawn) [Compound 103, 3-(butylamino)-N-methyl-4-phenoxy-5-[(tetrahydropyran-4-ylmethylamino)sulfonimidoyl]benzamide] | 30 to 50 | 50 to 75 | – | – | – |
| CCCCNc1cc(C(=O)OC)cc(S(=N)(=O)NCCc2cccc(Cl)c2)c1Oc1ccccc1 (stereo not drawn) [Compound 35, methyl 3-(butylamino)-5-[[2-(3-chlorophenyl)ethylamino]sulfonimidoyl]-4-phenoxy-benzoate] | – | 30 to 50 | – | – | – |
| CCCCNc1cc(C(=O)OC)cc(S(=N)(=O)NCC2CCN(C(C)=O)CC2)c1Oc1ccccc1 (stereo not drawn) [Compound 49, methyl 3-[[(1-acetyl-4-piperidyl)methylamino]sulfonimidoyl]-5-(butylamino)-4-phenoxy-benzoate] | 30 to 50 | 10 to 30 | – | – | – |
| CCCCNc1cc(C(=O)O)cc(S(=N)(=O)NC2CCOCC2)c1Oc1ccccc1 (stereo not drawn) [Compound 75, 3-(butylamino)-4-phenoxy-5-[(tetrahydropyran-4-ylamino)sulfonimidoyl]benzoic acid] | – | 30 to 50 | – | – | – |
| CCCCNc1cc(C(=O)O)cc(S(=N)(=O)N2CCCCC2)c1Oc1ccccc1 (stereo not drawn) [Compound 54, 3-(butylamino)-4-phenoxy-5-(1-piperidylsulfonimidoyl)benzoic acid] | 30 to 50 | ≥ 75 | – | – | – |
| CCCCNc1cc(C(=O)OC)cc(S(=N)(=O)N2CCc3ccccc32)c1Oc1ccccc1 (stereo not drawn) [Compound 19, methyl 3-(butylamino)-5-(indolin-1-ylsulfonimidoyl)-4-phenoxy-benzoate] | 30 to 50 | 10 to 30 | – | – | – |

Second part, the compound after the results:

| inhibition at 2 µM [1] [%] | inhibition at 20 µM [2] [%] | inhibition at 2 µM (native HEK293, read-out: Percent inhibition of drugs on NKCC1, 2 uM) [%] | inhibition at 20 µM (20 μM, native HEK293, read-out: Percent inhibition of drugs on NKCC1, 20 uM) [%] | K+ influx in the presence of compound (20 μM, native HEK293 without compound 7000-9000) | Compound |
| --- | --- | --- | --- | --- | --- |
| 30 to 50 | 50 to 75 | – | – | – | CCCCNc1cc(C(=O)O)cc(S(C)(=O)=NC)c1Oc1ccccc1 (stereo not drawn) [Compound 134, 3-(butylamino)-5-(N,S-dimethylsulfonimidoyl)-4-phenoxy-benzoic acid] |
| 30 to 50 | 30 to 50 | – | – | – | CCCCNc1cc(C(=O)OC)cc(S(=O)(=O)Nc2ccccc2)c1Oc1ccccc1 [Compound 124, methyl 3-(butylamino)-4-phenoxy-5-(phenylsulfamoyl)benzoate] |
| ≥ 75 | ≥ 75 | – | – | – | CCCCNc1cc(C(=O)O)cc(S(=O)(=O)Nc2ccccc2)c1Oc1ccccc1 [Compound 125, 3-(butylamino)-4-phenoxy-5-(phenylsulfamoyl)benzoic acid] |
| 30 to 50 | 10 to 30 | – | – | – | CCCCNc1cc(C(=O)OC)cc(S(C)(=O)=NC)c1Oc1ccccc1 (stereo not drawn) [Compound 133, methyl 3-(butylamino)-5-(N,S-dimethylsulfonimidoyl)-4-phenoxy-benzoate] |
| 30 to 50 | 10 to 30 | – | – | – | CCCCNc1cc(C(=O)NCC(F)(F)F)cc(S(=N)(=O)NC2CCOCC2)c1Oc1ccccc1 (stereo not drawn) [Compound 123, 3-(butylamino)-4-phenoxy-5-[(tetrahydropyran-4-ylamino)sulfonimidoyl]-N-(2,2,2-trifluoroethyl)benzamide] |
| – | – | 87 | 100 | 600-900 pmoles K+ per mg protein per m | CCCCNc1cc(C(=O)O)cc(S(N)(=O)=O)c1Oc1ccccc1 [Ref 1, bumetanide, reference compound] |
| 10 to 30 | 30 to 50 | – | – | – | CCCCNc1cc(-c2nc(=O)o[nH]2)cc(S(=O)(=O)Nc2ccccc2)c1Oc1ccccc1 [Compound 127, 3-(butylamino)-5-(5-oxo-2H-1,2,4-oxadiazol-3-yl)-2-phenoxy-N-phenyl-benzenesulfonamide] |
